Experimental data reported in publication PMC12371494, “Discovery of YTHDF2 Ligands by Fragment-Based Design” (ACS Bio & Med Chem Au, 2025).
Where “and” joins values, the source holds several entries; their conditions need not be identical. Identical values can stand only once. Like-named read-outs stand apart in the source and are kept apart here.

Tests used:
GST-YTHDF2 [1] = target: T1, GST-YTHDF2 (Homo sapiens, UniProt Q9Y5A9); assay: HTRF-based binding assay, competition with m6A-oligoRNA, DF2; conditions: for Single-dose residual signal at 100 µM, DF2: 100 µM compound, normalized; for IC50: dose-response, competitor m6A-oligoRNA, read-out: DF2 IC50 (HTRF assay); for LE (ligand efficiency, DF2): LE = -RT ln IC50/HAC from HTRF IC50
T1 construct: made in house
T1 sequence (Q9Y5A9 1-579): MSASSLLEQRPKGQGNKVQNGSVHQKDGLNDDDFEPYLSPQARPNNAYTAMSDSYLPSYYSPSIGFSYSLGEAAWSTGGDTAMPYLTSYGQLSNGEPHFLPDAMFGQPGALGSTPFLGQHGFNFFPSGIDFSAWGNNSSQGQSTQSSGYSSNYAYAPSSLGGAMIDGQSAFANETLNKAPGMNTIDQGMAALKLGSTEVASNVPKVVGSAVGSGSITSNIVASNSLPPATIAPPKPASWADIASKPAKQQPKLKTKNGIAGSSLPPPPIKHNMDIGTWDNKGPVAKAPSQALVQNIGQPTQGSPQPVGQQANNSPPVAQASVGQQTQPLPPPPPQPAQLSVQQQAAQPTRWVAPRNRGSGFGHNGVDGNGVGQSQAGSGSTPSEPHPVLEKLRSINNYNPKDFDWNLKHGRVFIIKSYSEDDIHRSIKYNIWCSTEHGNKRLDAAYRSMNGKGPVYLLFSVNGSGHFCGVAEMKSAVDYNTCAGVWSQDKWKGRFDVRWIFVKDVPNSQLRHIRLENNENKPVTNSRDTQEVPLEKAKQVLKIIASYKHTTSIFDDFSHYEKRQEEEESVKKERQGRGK

GST-YTHDF3 = target: T2, GST-YTHDF3 (Homo sapiens, UniProt Q7Z739); assay: HTRF-based binding assay, DF3; conditions: HTRF, 100 µM compound, normalized
T2 construct: made in house
T2 sequence (Q7Z739 1-585): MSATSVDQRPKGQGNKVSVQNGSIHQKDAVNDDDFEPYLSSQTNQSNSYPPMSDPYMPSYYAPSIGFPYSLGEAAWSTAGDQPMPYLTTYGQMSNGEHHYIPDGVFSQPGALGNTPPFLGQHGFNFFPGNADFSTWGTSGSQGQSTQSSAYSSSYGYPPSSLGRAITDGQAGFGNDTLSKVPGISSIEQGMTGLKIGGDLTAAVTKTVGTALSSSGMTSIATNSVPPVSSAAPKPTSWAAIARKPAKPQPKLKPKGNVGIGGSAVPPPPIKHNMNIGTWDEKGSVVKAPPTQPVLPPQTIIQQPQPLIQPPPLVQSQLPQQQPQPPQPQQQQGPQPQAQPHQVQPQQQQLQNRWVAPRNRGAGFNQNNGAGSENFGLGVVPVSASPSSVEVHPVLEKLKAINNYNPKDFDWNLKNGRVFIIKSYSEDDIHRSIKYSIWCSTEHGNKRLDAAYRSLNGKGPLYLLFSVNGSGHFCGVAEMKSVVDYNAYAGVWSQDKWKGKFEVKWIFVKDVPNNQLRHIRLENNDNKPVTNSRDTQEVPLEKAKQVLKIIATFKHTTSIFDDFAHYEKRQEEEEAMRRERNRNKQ
Description: (§1) The HTRF-based assay was employed to evaluate the selectivity of the series against other DF proteins.
(§2) A dose–response experiment on DF1 and DF3 was conducted for compounds 17, 18, 23, and 27 (Figure S5). Compounds 17, 18, and 27 are active on three DF proteins. […] In contrast, compound 23 is selective for DF2, with residual signals (at the highest employed concentration of 62.5 μM) of 51 and 87% for DF1 and DF3, respectively.
(§3) GST-YTHDC1, GST-YTHDF1, GST-YTHDF2, and GST-YTHDF3 were purified as previously reported. The HTRF assay was assembled as detailed in ref with the only difference being that the starting concentration of the dose–response experiments used for the IC50 determination was variated dependently from the tested compound. The same protocol was applied to the four proteins. The competitive inhibition data of GST-YTHDF1 (single dose experiment at 100 μM compound concentration and dose–response curves), GST-YTHDF3 (single dose experiment at 100 μM compound concentration and dose–response curves), and GST-YTHDF2 (single dose experiment at 100 μM compound concentration) were normalized as described in ref to mitigate interference. The signal was measured as described in ref .

GST-YTHDF1 = target: T3, GST-YTHDF1 (Homo sapiens, UniProt Q9BYJ9); assay: HTRF-based binding assay, DF1; conditions: HTRF, 100 µM compound, normalized
T3 construct: made in house
T3 sequence (Q9BYJ9 1-559): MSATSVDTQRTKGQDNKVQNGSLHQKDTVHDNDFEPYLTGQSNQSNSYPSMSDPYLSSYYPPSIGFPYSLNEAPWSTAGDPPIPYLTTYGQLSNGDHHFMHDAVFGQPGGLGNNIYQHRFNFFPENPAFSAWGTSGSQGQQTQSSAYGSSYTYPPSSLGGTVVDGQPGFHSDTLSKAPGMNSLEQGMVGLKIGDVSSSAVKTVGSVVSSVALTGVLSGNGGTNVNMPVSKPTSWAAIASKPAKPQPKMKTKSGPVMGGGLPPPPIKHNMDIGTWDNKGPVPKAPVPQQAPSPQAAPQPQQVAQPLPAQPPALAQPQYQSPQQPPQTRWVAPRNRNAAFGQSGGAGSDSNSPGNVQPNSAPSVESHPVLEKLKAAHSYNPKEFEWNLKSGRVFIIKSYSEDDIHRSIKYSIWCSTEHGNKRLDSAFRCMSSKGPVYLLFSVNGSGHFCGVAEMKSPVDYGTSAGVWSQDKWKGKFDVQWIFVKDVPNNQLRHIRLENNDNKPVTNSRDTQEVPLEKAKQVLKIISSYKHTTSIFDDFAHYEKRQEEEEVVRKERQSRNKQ
Description: as §1, §2, §3

YTHDC2 = target: T4, YTHDC2 (Homo sapiens, UniProt Q9H6S0); assay: DNA-fluorescence polarization (FP) competition assay, DC2; assay type: binding; conditions: for Kd: Cheng-Prusoff from FP IC50, probe Kd 7 nM, two biological replicates
T4 construct: YTH domain of YTHDC2 (residues 1285–1424, cloned into the pGEX-6P-1 vector); made in house; host or cells: Rosetta (DE3) cells (E. coli)
T4 sequence (Q9H6S0 1285-1424): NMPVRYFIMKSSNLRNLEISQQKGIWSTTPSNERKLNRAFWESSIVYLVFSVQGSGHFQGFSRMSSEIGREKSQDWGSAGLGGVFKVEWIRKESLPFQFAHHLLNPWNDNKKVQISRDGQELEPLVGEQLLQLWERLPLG
Description: (§4) The binding affinity for DC1 could not be evaluated by HTRF because of interference of the compounds with the assay, which has a smaller assay window when performed with DC1 compared to the DF proteins. Thus, the FP assay was used to evaluate binding to DC1 and DC2.
The N-terminally GST-tagged YTH domain of YTHDC2 (residues 1285–1424, cloned into the pGEX-6P-1 vector) was overexpressed in Rosetta (DE3) cells grown overnight at 20 °C following induction with 0.4 mM isopropyl-β-D-thiogalactopyranoside (IPTG) at an OD600 of 0.8. The cells were harvested and resuspended in a lysis buffer containing 100 mM Tris–HCl (pH 8.0) and 500 mM NaCl. After cell lysis, the lysate was clarified by centrifugation at 48,000g for 1 h, and the soluble proteins were loaded onto a column packed with Glutathione Sepharose 4B (GE Healthcare), then eluted with 20 mM reduced glutathione in lysis buffer. Finally, a size-exclusion chromatography step (HiLoad 16/600 Superdex 200 pg column, GE Healthcare) was performed to further purify the protein in 20 mM Tris–HCl (pH 7.4) and 150 mM NaCl.
(§5) For fluorescence polarization (FP) experiments, a 5′-fluorescein-labeled m^6A-DNA probe (5′-FAM-[…](m6A)-CTAAGCT-3′) was synthesized by Microsynth AG.
(§6) The final concentration of the fluorescein-labeled DNA was kept constant at 3 nM. For YTHDC2 measurements, the protein concentration was set to 25 nM, while for YTHDF2 measurements, it was set to 10 nM, and for YTHDC1, it was set at 15 nM. The compound concentration was serially diluted to obtain the dose–response curve. The competition experiments were conducted in a final volume of 20 μL in a buffer containing 20 mM Tris–HCl (pH 7.4), 150 mM NaCl, and 0.01% bovine serum albumin (BSA), using a 384-well black flat-bottomed microplate (Corning 3575).
(§7) After incubating the mixture for 1 h, the anisotropy values were measured using a Tecan SPARK plate reader with 485/20 nm excitation and 535/25 nm emission polarization filters, suitable for fluorescein, at 25 °C. To obtain the equilibrium dissociation constant (K d), the IC50 values were first derived by fitting a dose–response curve to the data using nonlinear regression analysis in GraphPad Prism. These IC50 values were then converted to K d by using the Cheng–Prusoff equation: Kd=IC50/1+[L]/Kdprobe
(§8) IC50 is the observed value from FP assay, [L] is the probe concentration used, and K d ^probe is the binding affinity of probe for the target.

YTHDF2 = target: T5, YTHDF2 (Homo sapiens, UniProt Q9Y5A9); assay: DNA-fluorescence polarization (FP) competition assay, DF2; assay type: binding
T5 sequence (Q9Y5A9 1-579): T1 sequence (Q9Y5A9 1-579)
Description: An FP competition assay was used to further validate the binding of the compounds to DF2. The main difference with respect to a previously published FP assay is the use of an oligo-DNA as competitor ligand (see Materials and Methods section). […] These differences might originate from the varying conditions in the two assays, such as the competitor mRNA (5′-biotin-[…](m6A)-CUAAGCU-3′) in HTRF and DNA (5′-FAM-[…](m6A)-CTAAGCT-3′) in FP, the salt concentration (150 mM NaCl and 100 mM KF in HTRF, and 150 mM NaCl in FP), and the pH (7.5 in HTRF and 7.4 in FP). The FP-based assay was also employed to assess the selectivity against DC1 and DC2 (see Selectivity section).
as §5, §6, §7, §8

YTHDC1 = YTHDC1 (Homo sapiens, UniProt Q96MU7); assay: DNA-fluorescence polarization (FP) competition assay, DC1; assay type: binding
Description: as §4, §5, §6, §7, §8

GST-YTHDF2 [2] = target: T1, GST-YTHDF2; conditions: HTRF, 1 mM compound; cited from earlier work
[3] = Cheng-Prusoff from FP IC50, probe Kd 5 nM, two biological replicates

Row | Compound | Single-dose residual signal at 100 µM, DF2 (GST-YTHDF2 [1]; HTRF) | IC50 (GST-YTHDF2 [1]) | Single-dose residual signal at 100 µM, DF3 (GST-YTHDF3) | Single-dose residual signal at 100 µM, DF1 (GST-YTHDF1) | Kd (YTHDC2) | further results
1 | COc1ccc(-c2cc3c(=O)[nH]c(=S)[nH]c3s2)cc1 [Compound 28] |  | 22 µM |  |  | 9.1 µM | LE (ligand efficiency, DF2) (GST-YTHDF2 [1]): 0.34 kcal/(mol HAC); Kd (YTHDF2): 1.9 µM; Kd (YTHDC1): 9.4 µM
2 | CCOC(=O)c1ccc(-c2cc3c(=O)[nH]c(=S)[nH]c3s2)cc1 [Compound 29] |  | 21 µM |  |  | 8.4 µM | LE (ligand efficiency, DF2) (GST-YTHDF2 [1]): 0.29 kcal/(mol HAC); Kd (YTHDF2): 3.1 µM; Kd (YTHDC1): 5 µM; Selectivity DF2 over DC1 (Kd ratio DC1/DF2) (YTHDC1; FP Kd values): 2–4 fold; Selectivity DF2 over DC2 (Kd ratio DC2/DF2) (YTHDC2; FP Kd values): 2–4 fold
3 | O=C(O)c1ccc(-c2cc3c(=O)[nH]c(=S)[nH]c3s2)cc1 [Compound 30] |  |  |  |  | 5 µM and 4.9 µM | Kd (YTHDF2): 1.9 µM; Kd (YTHDC1): 7.5 µM
4 | CNc1ncnc2[nH]cnc12 [m^6-Adenine] |  |  |  |  |  | Residual signal at 1 mM concentration (GST-YTHDF2 [2]): 75 (Ref. ^13) %

Now from value to compound, other results behind:

Row | Single-dose residual signal at 100 µM, DF2 (GST-YTHDF2 [1]; HTRF) | IC50 (GST-YTHDF2 [1]) | Single-dose residual signal at 100 µM, DF3 (GST-YTHDF3) | Single-dose residual signal at 100 µM, DF1 (GST-YTHDF1) | Kd (YTHDC2) | Compound | further results
5 | 9% | 27 µM | 30% | 31% | > 1000 µM | Cc1c(C(C)O)sc2[nH]c(=S)[nH]c(=O)c12 (racemic) [Compound S79] | 
6 |  | 94 µM |  |  | > 1000 µM | O=c1[nH]c(=S)[nH]c2scc(-c3ccccc3)c12 [Compound S74] | 
7 | 8% | 38 µM | 22% | 17% | > 1000 µM | Cc1cc2c(=O)[nH]c(=S)[nH]c2s1 [Compound S78] | 
8 | 9% | 32 µM | 29% | 15% |  | Cc1c(C(=O)O)sc2[nH]c(=S)[nH]c(=O)c12 [Compound S80] | 
9 | 9% | 25 µM | 40% | 17% | > 1000 µM | Cc1c(C(=O)NCCCCO)sc2[nH]c(=S)[nH]c(=O)c12 [Compound S83] | 
10 |  |  |  |  | 210 µM | CCOC(=O)c1ccc(Cc2cc3c(=O)[nH]c(=S)[nH]c3s2)cc1 [Compound S86] | % at 125 μM (printed in IC50 column, IC50 could not be determined) (GST-YTHDF2 [1]; HTRF, 125 μM compound): 63%
11 |  | 29 µM |  |  | 100 µM | O=C(O)c1ccc(Cc2cc3c(=O)[nH]c(=S)[nH]c3s2)cc1 [Compound S87] | Kd (YTHDF2; [3]): 18 µM
12 |  | 28 µM |  |  | 120 µM | Cc1csc2[nH]c(=S)[nH]c(=O)c12 [Compound S88] | Kd (YTHDF2; [3]): 8.1 µM
